US20260007613A1, “LONG-ACTING LOW-TOXICITY NOVEL CATIONIC LIPID COMPOUNDS AND COMPOSITION THEREOF” (BEIJING YOUCAREKECHUANG PHARMACEUTICAL TECHNOLOGY CO., LTD., priority 2023, published 2026)
Values joined by “and” are separate entries in the source; they are usually repeats but may differ in a detail not shown here. Identical values can stand only once.

Key:
liver = test: Distribution of liposomes in mice: protein expression in the liver (live imaging); format: in vivo; details: at 6 h
In short: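 Female BALB/C mice (4–6 weeks, 17–19 g) received LNP carrying […] Fluc-mRNA intramuscularly. At 6 h, 24 h, 48 h and 7 d, the luciferase substrate was given intraperitoneally. After 5 min of free movement, average radiance was imaged with IVIS Spectrum.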

293T cells [1] = test: Cell survival rate determination (CCK-8); format: cell-based
In short: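 Readout was CCK-8 absorbance (450 nm, 1 h) taken after a 24 h exposure of overnight-adhered 293T cells (10,000 per well, 96-well) to Lipofectamine 3000 or to LNPs carrying Fluc-mRNA, lipid molar ratio 49:10:39.5:1.5 cationic/neutral/structured/polymer-conjugated.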

293T cells [2] = test: Fluorescent detection of Fluc-mRNA (cell transfection efficiency of LNP formulations); format: cell-based
In short: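 Transfection read-out: IVIS imaging after […], 24 h after adding LNPs (lipid molar ratio 49:10:39.5:1.5 cationic/neutral/structured/polymer-lipid; […] Fluc-mRNA). Adherent 293T cells were seeded overnight at 10,000 per well beforehand.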

[3] = Particle size and polydispersity index (PDI) of lipid nanoparticles by dynamic light scattering; format: physicochemical; details: LNP formulation prepared from the cationic lipid, 25° C.
Procedure: The particle size and polydispersity index (PDI) were determined by dynamic light scattering using Malvern laser particle size analyzer.
10 μL of the liposome solution was weighed, diluted to 1 mL with RNase-free deionized water, and added to the sample pool. Each sample was measured in triplicate. The measurement conditions were: […] scattering angle, and 25° C.

female BALB/C mice = test: Live imaging in mice: protein expression of Fluc-mRNA delivered by LNP formulations; format: in vivo; details: for average radiation intensity, times that of ALC-0315: comparator ALC-0315; for average radiation intensity, times that of HHMA: comparator HHMA; for average radiation intensity, times that of SM-102: comparator SM-102; for expression of mRNA in mice, times that of YK-302: comparator YK-302; for expression amount, times that of YK-309: comparator YK-309; for expression amount, times that of YK-313: comparator YK-313; for expression amount, times that of YK-321: comparator YK-321; for average radiation intensity, times that of compound 21: comparator compound 21; for average radiation intensity, times that of compound 23: comparator compound 23
In short: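 Female BALB/C mice (4-6 weeks, 17-19 g) received LNP-formulated Fluc-mRNA […] intramuscularly. At 6 h, 24 h, 48 h and 7 d, luciferase substrate given intraperitoneally, and after 5 min average radiance measured by IVIS whole-body imaging.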

CCCCCCCCC(CCCCCCCC)COC(=O)CCCCCN(CCCCCC(=O)OCC(CCCCCCCC)CCCCCCCC)C[C@H](O)CN(C)CCO [YK-305, (R)-Bis(2-octyldecyl)-6,6′-((2-hydroxy-3-((2-hydroxyethyl)(methyl)amino)propyl)azanediyl)dihexanoate]
expression amount in the liver compared with ALC-0315 and SM-102 (liver): reduced
protein expression in the liver (liver; intramuscular injection): had protein expression in the liver
Cell survival rate (%) (293T cells [1]; LNP formulation of Fluc-mRNA, 24 hours, CCK-8): 82.18%
cell survival rate higher than ALC-0315 (293T cells [1]; difference of survival rates, comparator ALC-0315): 31.15% and ~30%
cell survival rate higher than HHMA (293T cells [1]; difference of survival rates, comparator HHMA): 15.71% and ~15%
cell survival rate higher than Lipofectamine 3000 (293T cells [1]; difference of survival rates, comparator Lipofectamine 3000): 57.17%
cell survival rate higher than SM-102 (293T cells [1]; difference of survival rates, comparator SM-102): 12.73% and ~12%
cell survival rate higher than YK-301 (293T cells [1]; difference of survival rates, comparator YK-301): 29.22%
cell survival rate higher than YK-302 (293T cells [1]; difference of survival rates, comparator YK-302): 65.75% and ~65% and ~50%
cell survival rate higher than YK-303 (293T cells [1]; difference of survival rates, comparator YK-303): 18.86%
cell survival rate higher than YK-304 (293T cells [1]; difference of survival rates, comparator YK-304): 48.02%
cell survival rate higher than YK-306 (293T cells [1]; difference of survival rates, comparator YK-306): 39.99%
cell survival rate higher than YK-307 (293T cells [1]; difference of survival rates, comparator YK-307): 21.04%
cell survival rate higher than YK-308 (293T cells [1]; difference of survival rates, comparator YK-308): 11.19%
cell survival rate higher than YK-309 (293T cells [1]; difference of survival rates, comparator YK-309): 50.57%
cell survival rate higher than YK-311 (293T cells [1]; difference of survival rates, comparator YK-311): 12.12%
cell survival rate higher than YK-313 (293T cells [1]; difference of survival rates, comparator YK-313): 13.25%
cell survival rate higher than YK-314 (293T cells [1]; difference of survival rates, comparator YK-314): 14.30%
cell survival rate higher than YK-315 (293T cells [1]; difference of survival rates, comparator YK-315): 10.90%
cell survival rate higher than YK-316 (293T cells [1]; difference of survival rates, comparator YK-316): 11.65%
cell survival rate higher than YK-317 (293T cells [1]; difference of survival rates, comparator YK-317): 23.00% and ~20%
cell survival rate higher than YK-320 (293T cells [1]; difference of survival rates, comparator YK-320): 11.110%
cell survival rate higher than YK-321 (293T cells [1]; difference of survival rates, comparator YK-321): 9.84%
cell survival rate higher than compound 21 (293T cells [1]; difference of survival rates, comparator compound 21): 11.97%
cell survival rate higher than compound 23 (293T cells [1]; difference of survival rates, comparator compound 23): 10.68%
Relative light unit (RLU) (293T cells [2]; LNP formulation of Fluc-mRNA, 96-well plate, 24 hours): 27408734 RLU
Multiples (YK-305) (293T cells [2]; RLU of YK-305 / RLU of the lipid of the line): 1.00
Multiples (YK-310) (293T cells [2]; RLU of YK-310 / RLU of the lipid of the line): 0.94
Multiples (YK-312) (293T cells [2]; RLU of YK-312 / RLU of the lipid of the line): 0.74
Multiples (YK-318) (293T cells [2]; RLU of YK-318 / RLU of the lipid of the line, Tables 5, 7, 11): 0.41
Multiples (YK-319) (293T cells [2]; RLU of YK-319 / RLU of the lipid of the line, Tables 5, 7, 11): 0.89
Ratio relative to SM-102 (293T cells [2]; RLU of the lipid / RLU of SM-102, times that of SM-102): 17.09
cell transfection efficiency, times that of ALC-0315 (293T cells [2]; comparator ALC-0315): 13.48 times
cell transfection efficiency, times that of HHMA (293T cells [2]; comparator HHMA): 13.66 times
cell transfection efficiency, times that of Lipofectamine 3000 (293T cells [2]; comparator Lipofectamine 3000): 23.12 times
cell transfection efficiency, times that of YK-009 (293T cells [2]; comparator YK-009): 5.35 times
cell transfection efficiency, times that of YK-301 (293T cells [2]; comparator YK-301): 32.53 times
cell transfection efficiency, times that of YK-303 (293T cells [2]; comparator YK-303): 43.76 times
cell transfection efficiency, times that of YK-306 (293T cells [2]; comparator YK-306): 12.47 times
cell transfection efficiency, times that of YK-307 (293T cells [2]; comparator YK-307): 6.01 times
cell transfection efficiency, times that of YK-308 (293T cells [2]; comparator YK-308): 5.44 times
cell transfection efficiency, times that of YK-309 (293T cells [2]; comparator YK-309): ~210 times and 218.62 times and ~200 times
cell transfection efficiency, times that of YK-311 (293T cells [2]; comparator YK-311): 13.96 times
cell transfection efficiency, times that of YK-313 (293T cells [2]; comparator YK-313): 31.63 times
cell transfection efficiency, times that of YK-314 (293T cells [2]; comparator YK-314): 50.07 times
cell transfection efficiency, times that of YK-315 (293T cells [2]; comparator YK-315): 17.27 times
cell transfection efficiency, times that of YK-316 (293T cells [2]; comparator YK-316): 5.70 times
cell transfection efficiency, times that of YK-317 (293T cells [2]; comparator YK-317): 7.60 times
cell transfection efficiency, times that of YK-320 (293T cells [2]; comparator YK-320): 10.14 times
cell transfection efficiency, times that of YK-321 (293T cells [2]; comparator YK-321): 19.53 times and ~20 times
cell transfection efficiency, times that of compound 21 (293T cells [2]; comparator compound 21): 19.14 times
cell transfection efficiency, times that of compound 23 (293T cells [2]; comparator compound 23): 20.21 times
PDI (%) [3]: 10.7%
Particle size (nm) [3]: 191 nm
average radiation intensity, times that of ALC-0315 (female BALB/C mice; 6 h): 10.70 times
average radiation intensity, times that of HHMA (female BALB/C mice; 6 h): 14.19 times
average radiation intensity, times that of SM-102 (female BALB/C mice; 6 h): 13.18 times
expression of mRNA in mice, times that of YK-302 (female BALB/C mice; 6 h): 633.70 times
expression amount, times that of YK-309 (female BALB/C mice; 6 h): 140.67 times
expression amount, times that of YK-313 (female BALB/C mice; 6 h): 20.89 times
expression amount, times that of YK-321 (female BALB/C mice; 6 h): 17.92 times
average radiation intensity, times that of compound 21 (female BALB/C mice; 6 h): 15.14 times
average radiation intensity, times that of compound 23 (female BALB/C mice; 6 h): 15.68 times
average radiation intensity (female BALB/C mice; 6 h after intramuscular injection): 9239340
average radiation intensity, times that of ALC-0315 (female BALB/C mice; 24 h): 14.82 times
average radiation intensity, times that of HHMA (female BALB/C mice; 24 h): 23.54 times
average radiation intensity, times that of SM-102 (female BALB/C mice; 24 h): 23.44 times
expression of mRNA in mice, times that of YK-302 (female BALB/C mice; 24 h): 713.70 times
expression amount, times that of YK-309 (female BALB/C mice; 24 h): 167.86 times
expression amount, times that of YK-313 (female BALB/C mice; 24 h): 27.04 times
expression amount, times that of YK-321 (female BALB/C mice; 24 h): 27.89 times
average radiation intensity, times that of compound 21 (female BALB/C mice; 24 h): 25.70 times
average radiation intensity, times that of compound 23 (female BALB/C mice; 24 h): 27.01 times
average radiation intensity (female BALB/C mice; 24 h after intramuscular injection): 2823400
average radiation intensity, times that of ALC-0315 (female BALB/C mice; 48 h): 26.32 times
average radiation intensity, times that of HHMA (female BALB/C mice; 48 h): 32.18 times
average radiation intensity, times that of SM-102 (female BALB/C mice; 48 h): 32.19 times
expression amount, times that of YK-309 (female BALB/C mice; 48 h): 159.93 times and ~160 times
expression amount, times that of YK-313 (female BALB/C mice; 48 h): 40.99 times
expression amount, times that of YK-321 (female BALB/C mice; 48 h): 28.65 times
average radiation intensity, times that of compound 21 (female BALB/C mice; 48 h): 33.82 times
average radiation intensity, times that of compound 23 (female BALB/C mice; 48 h): 31.63 times
average radiation intensity (female BALB/C mice; 48 h after intramuscular injection): 1047720
average radiation intensity, times that of ALC-0315 (female BALB/C mice; 7 d): 18.02 times
average radiation intensity, times that of HHMA (female BALB/C mice; 7 d): 21.63 times
average radiation intensity, times that of SM-102 (female BALB/C mice; 7 d): 19.18 times
expression amount, times that of YK-309 (female BALB/C mice; 7 d): 101.13 times and ~100 times
expression amount, times that of YK-313 (female BALB/C mice; 7 d): 39.26 times
expression amount, times that of YK-321 (female BALB/C mice; 7 d): 19.29 times
average radiation intensity, times that of compound 21 (female BALB/C mice; 7 d): 19.71 times
average radiation intensity, times that of compound 23 (female BALB/C mice; 7 d): 20.35 times
average radiation intensity (female BALB/C mice; 7 d after intramuscular injection): 127015
